“And” between values parts separate entries of the source, which are not always exact repeats. Equal values may be shown once.
Key:
Type in all cases: functional
Mus musculus [1] = species on record: Mus musculus; assay: Percentage increase in life span after 17-35 days
Mus musculus [2] = species on record: Mus musculus; assay: Percentage increase in life span after 17-29 days
Mus musculus [3] = assay: Weight change on day 8 in L1210/ara-C (I) Lymphoid Leukemia in mice( ip implanted) at a dose of 400 mg/kg/day (qd=1); details: route intraperitoneal
Mus musculus [4] = assay: No of survivors after 45 days ata dose of 400 mg/kg/day
Mus musculus [5] = assay: No of survivors after 45 days ata dose of 80 mg/kg/day
Mus musculus [6] = assay: Weight change on day 8 in L1210/ara-C (I) Lymphoid Leukemia in mice( ip implanted) at a dose of 80 mg/kg/day (qd=1-5); details: route intraperitoneal
Mus musculus [7] = species on record: Mus musculus; assay: Dose producing greatest increase in life span expressed as optimum dose (L1210/ara-C II) (qd 1)
Mus musculus [8] = assay: No of survivors after 45 dose ata dose of 60 mg/kg/day
Mus musculus [9] = assay: No of survivors after 45 dose ata dose of 300 mg/kg/day
Mus musculus [10] = assay: Weight change on day 8 in L1210/ara-C (I) Lymphoid Leukemia in mice( ip implanted) at a dose of 60 mg/kg/day (qd=1-5); details: route intraperitoneal
Mus musculus [11] = species on record: Mus musculus; assay: Percentage increase in life span after 8-9 days
Mus musculus [12] = species on record: Mus musculus; assay: Dose producing greatest increase in life span expressed as optimum dose (L1210/ara-C I) (qd 1,5,9)
Mus musculus [13] = species on record: Mus musculus; assay: Percentage increase in life span after 35->45 days
Mus musculus [14] = species on record: Mus musculus; assay: Percentage increase in life span after 8->45 days
Mus musculus [15] = assay: Weight change on day 8 in L1210/ara-C (I) Lymphoid Leukemia in mice( ip implanted) at a dose of 300 mg/kg/day (qd=1); details: route intraperitoneal
Mus musculus [16] = assay: Weight change on day 8 in L1210/ara-C (I) Lymphoid Leukemia in mice( ip implanted) at a dose of 133 mg/kg/day (qd=1,5,9); details: route intraperitoneal
Mus musculus [17] = assay: No of survivors after 45 dose ata dose of 133 mg/kg/day
Mus musculus [18] = assay: No of survivors after 45 days ata dose of 300 60 mg/kg/day
Mus musculus [19] = species on record: Mus musculus; assay: Percentage increase in life span after 7-8 days
Mus musculus [20] = assay: No of survivors after 45 days ata dose of 300 mg/kg/day
Mus musculus [21] = species on record: Mus musculus; assay: Percentage increase in life span after 29->45 days
Mus musculus [22] = assay: Weight change on day 8 in L1210/ara-C (I) Lymphoid Leukemia in mice( ip implanted) at a dose of 95 and 190 mg/kg/day (qd=1); details: route intraperitoneal
Mus musculus [23] = assay: Weight change on day 8 in L1210/ara-C (I) Lymphoid Leukemia in mice( ip implanted) at a dose of 19 and 38 mg/kg/day (qd=1-5); details: route intraperitoneal
Mus musculus [24] = assay: No of survivors after 45 days ata dose of 19 and 38 mg/kg/day
Mus musculus [25] = assay: No of survivors after 45 days ata dose of 95 and 190 mg/kg/day
Mus musculus [26] = species on record: Mus musculus; assay: Percentage increase in life span after 7-14 days
Mus musculus [27] = species on record: Mus musculus; assay: Percentage increase in life span after 9-11 days
Mus musculus [28] = species on record: Mus musculus; assay: Percentage increase in life span after 10 days
Mus musculus [29] = species on record: Mus musculus; assay: Percentage increase in life span after 11-12 days
Mus musculus [30] = assay: weight change on day 8 in L1210/ara-C (I) Lymphoid Leukemia in mice( ip implanted) at a dose of 19 and 38 mg/kg/day; details: route intraperitoneal
Mus musculus [31] = assay: Weight change on day 8 in L1210/ara-C (I) Lymphoid Leukemia in mice( ip implanted) at a dose of 95 and 190 mg/kg/day; details: route intraperitoneal
Mus musculus [32] = species on record: Mus musculus; assay: Percentage increase in life span after 12-13days
Mus musculus [33] = assay: weight change on day 8 in L1210/ara-C (I) Lymphoid Leukemia in mice( ip implanted) at a dose of 60 mg/kg/day (qd=1-5); details: route intraperitoneal
Mus musculus [34] = assay: No of survivors after 45 days ata dose of 100 mg/kg/day
Mus musculus [35] = species on record: Mus musculus; assay: Percentage increase in life span after 13-15 days
Mus musculus [36] = species on record: Mus musculus; assay: Percentage increase in life span after 9-12 days
Mus musculus [37] = assay: No of survivors after 45 days ata dose of 60 mg/kg/day
Mus musculus [38] = assay: weight change on day 8 in L1210/ara-C (I) Lymphoid Leukemia in mice( ip implanted) at a dose of 100 mg/kg/day (qd=1,5,9); details: route intraperitoneal
Mus musculus [39] = assay: No of survivors after 45 days at a dose of 400 mg/kg/day
Mus musculus [40] = species on record: Mus musculus; assay: Dose producing greatest increase in life span expressed as optimum dose (L1210/ara-C I) (qd 1-9)
Mus musculus [41] = species on record: Mus musculus; assay: Percentage increase in life span after 7 days
Mus musculus [42] = species on record: Mus musculus; assay: Dose producing greatest increase in life span expressed as optimum dose (L1210/ara-C II) (qd 1-5)
Mus musculus [43] = assay: Weight change on day 8 in L1210/ara-C (I) Lymphoid Leukemia in mice( ip implanted) at a dose of 100 mg/kg/day (qd=1,5,9); details: route intraperitoneal
Mus musculus [44] = assay: (§1) No of survivors after 45 days at a dose of 100 mg/kg/day
Mus musculus [45] = assay: No of survivors after 45 days at a dose of 300 mg/kg/day
Mus musculus [46] = species on record: Mus musculus; assay: Dose producing greatest increase in life span expressed as optimum dose (L1210/ara-C I) (qd 1)
Mus musculus [47] = assay: (§2) No of survivors after 45 days at a dose of 60 mg/kg/day
Mus musculus [48] = assay: Weight change on day 8 in L1210/ara-C (I) Lymphoid Leukemia in mice( ip implanted) at a dose of 60 mg/kg/day (qd=1-15); details: route intraperitoneal
Mus musculus [49] = assay: as §1; remark: listed apart in the source
Mus musculus [50] = species on record: Mus musculus; assay: Dose producing greatest increase in life span expressed as optimum dose (L1210/ara-C I) (qd 1-5)
Mus musculus [51] = assay: Weight change on day 8 in L1210/ara-C (I) Lymphoid Leukemia in mice( ip implanted) at a dose of 60 mg/kg/day (qd=1-9); details: route intraperitoneal
Mus musculus [52] = assay: as §2; remark: listed apart in the source
Mus musculus [53] = assay: (§3) No of survivors after 45 days at a dose of 200 mg/kg/day
Mus musculus [54] = assay: Weight change on day 8 in L1210/ara-C (I) Lymphoid Leukemia in mice( ip implanted) at a dose of 200 mg/kg/day (qd=1); details: route intraperitoneal
Mus musculus [55] = species on record: Mus musculus; assay: Percentage increase in life span after 15-18 days
Mus musculus [56] = species on record: Mus musculus; assay: Percentage increase in life span after 17-21 days
Mus musculus [57] = species on record: Mus musculus; assay: Dose producing greatest increase in life span expressed as optimum dose (L1210/ara-C I) (qd 1-15)
Mus musculus [58] = assay: as §3; remark: listed apart in the source

Structure (SMILES): CCCCCCCCCCCCCCCC(=O)OC[C@@H](COP(=O)(O)OP(=O)(O)OC[C@H]1O[C@@H](n2ccc(N)nc2=O)[C@@H](O)[C@@H]1O)OC(=O)CCCCCCCCCCCCCCC
- ILS (Mus musculus [1]): 100%
- ILS (Mus musculus [2]): 121%
- Weight change (Mus musculus [3]): 0.18 g mouse-1
- No. of survivors (Mus musculus [4]): 0
- No. of survivors (Mus musculus [5]): 0
- Weight change (Mus musculus [6]): -0.48 g mouse-1

Structure (SMILES): CCCCCCCCCCCCCCCC(=O)OC[C@H](COP(=O)(O)OP(=O)(O)OC[C@H]1O[C@@H](n2ccc(N)nc2=O)[C@@H](O)[C@@H]1O)OC(=O)CCCCCCCCCCCCCCC
- Optimal dose (Mus musculus [7]): 300 mg·µM/kg
- No. of survivors (Mus musculus [8]): 5
- No. of survivors (Mus musculus [9]): 4
- Weight change (Mus musculus [10]): -2.72 g mouse-1
- ILS (Mus musculus [11]): -11%
- Optimal dose (Mus musculus [12]): 133 mg·µM/kg
- ILS (Mus musculus [13]): >374%
- ILS (Mus musculus [14]): >400%
- Weight change (Mus musculus [15]): -0.04 g mouse-1
- Weight change (Mus musculus [16]): -0.53 g mouse-1
- No. of survivors (Mus musculus [17]): 5
- No. of survivors (Mus musculus [18]): 0
- ILS (Mus musculus [19]): -11%
- No. of survivors (Mus musculus [20]): 0
- ILS (Mus musculus [21]): >400%

Structure (SMILES): CCCCCCCCCCCCCCCC(=O)OC[C@H](COP(=O)(O)O)OC(=O)CCCCCCCCCCCCCCC.Nc1ccn([C@@H]2O[C@H](COP(=O)(O)O)[C@@H](O)[C@@H]2O)c(=O)n1
- Weight change (Mus musculus [22]): -0.5 g mouse-1
- Weight change (Mus musculus [23]): -1.08 g mouse-1
- No. of survivors (Mus musculus [24]): 0
- No. of survivors (Mus musculus [25]): 0
- ILS (Mus musculus [26]): 16%
- ILS (Mus musculus [27]): 5%

Structure (SMILES): CCCCCCCCCCCCCCCC(=O)OC[C@@H](COP(=O)(O)O)OC(=O)CCCCCCCCCCCCCCC.Nc1ccn([C@@H]2O[C@H](COP(=O)(O)O)[C@@H](O)[C@@H]2O)c(=O)n1
- ILS (Mus musculus [28]): 5%
- ILS (Mus musculus [29]): 16%
- Weight change (Mus musculus [30]): -1.58 g mouse-1
- No. of survivors (Mus musculus [24]): 0
- No. of survivors (Mus musculus [25]): 0
- Weight change (Mus musculus [31]): -0.82 g mouse-1

Structure (SMILES): CCCCCCCCCCCCCCCC(=O)OCC(COP(=O)(O)OP(=O)(O)OC[C@H]1O[C@@H](n2ccc(N)nc2=O)[C@@H](O)[C@@H]1O)OC(=O)CCCCCCCCCCCCCCC (mixture of isomers)
- ILS (Mus musculus [32]): 317%
- Weight change (Mus musculus [33]): -2.92 g mouse-1
- No. of survivors (Mus musculus [34]): 2
- ILS (Mus musculus [35]): 233%
- ILS (Mus musculus [36]): >400%
- Weight change (Mus musculus [3]): -2.07 g mouse-1
- Optimal dose (Mus musculus [12]): 100 mg·µM/kg
- No. of survivors (Mus musculus [37]): 2
- Weight change (Mus musculus [38]): -1.35 g mouse-1
- No. of survivors (Mus musculus [39]): 4

Structure (SMILES): Nc1ccn([C@@H]2O[C@H](CO)[C@@H](O)[C@@H]2O)c(=O)n1 [CYTARABINE]
- ILS (Mus musculus [32]): 50%
- Optimal dose (Mus musculus [40]): 60 µM/kg
- ILS (Mus musculus [41]): -22%
- Weight change (Mus musculus [10]): -0.87 g mouse-1
- Optimal dose (Mus musculus [42]): 100 µM/kg and 200 µM/kg and 300 µM/kg
- Weight change (Mus musculus [43]): 2.6 g mouse-1
- No. of survivors (Mus musculus [44]): 0
- No. of survivors (Mus musculus [45]): 0
- ILS (Mus musculus [35]): 65%
- Optimal dose (Mus musculus [46]): 200 µM/kg
- ILS (Mus musculus [36]): 17%
- No. of survivors (Mus musculus [47]): 0
- Weight change (Mus musculus [48]): -0.93 g mouse-1
- No. of survivors (Mus musculus [49]): 0
- Optimal dose (Mus musculus [12]): 100 µM/kg
- Optimal dose (Mus musculus [50]): 60 µM/kg
- Weight change (Mus musculus [51]): -1.8 g mouse-1
- No. of survivors (Mus musculus [52]): 0
- No. of survivors (Mus musculus [53]): 0
- Weight change (Mus musculus [54]): 3.6 g mouse-1
- ILS (Mus musculus [55]): 82%
- ILS (Mus musculus [56]): 147%
- Optimal dose (Mus musculus [57]): 60 µM/kg
- ILS (Mus musculus [19]): -22% and -11%
- No. of survivors (Mus musculus [58]): 0

Reference: ChEMBL document CHEMBL1124302, “Nucleoside conjugates. 10. Synthesis and antitumor activity of 1-beta-D-arabinofuranosylcytosine 5'-diphosphate-1,2-dipalmitins” (J Med Chem, 1988)
